# Assay results reported in patent publication US8921267B2, “Safening 6-(trisubstituted phenyl)-4-amino-2-pyridinecarboxylate herbicide injury on cereal crops” (Dow AgroSciences LLC, priority 2008, dated 2014).
# What was measured:
# [1] = test system: Russian thistle (Salsola iberica L; SASKR); assay: Postemergence herbicidal activity, greenhouse, visual injury: Russian thistle; format: in vivo; parameters: key: visual injury, 0–100%: 0 = no injury, 100 = complete kill
# Outline: (§1)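 Percent visual injury relative to solvent-blank controls, rated 20-22 d after treatment on a 0 (none) to 100 (complete kill) scale. Expected mixture response came from Colby's equation, Expected=A+B−(A×B/100). Sprays contained 1.5% v/v crop oil concentrate at 187 L/ha.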
# [2] = test system: bird's-eye speedwell (Veronica persica L; VERPE); assay: Postemergence herbicidal activity, greenhouse, visual injury: bird's-eye speedwell; format: in vivo; parameters: key: visual injury, 0–100%: 0 = no injury, 100 = complete kill
# Outline: as §1
# [3] = test system: purple deadnettle (Lamium purpureum L; LAMPU); assay: Postemergence herbicidal activity, greenhouse, visual injury: purple deadnettle; format: in vivo
# Outline: as §1
# [4] = test system: wheat (Triticum aestivum L; TRZAW); assay: Postemergence herbicidal safening, greenhouse, visual injury: wheat (TRZAW); format: in vivo
# Experimental: (§2) Evaluation of Postemergence Herbicidal Safening in Cereal Crops
# (§3) Seeds of the desired test plant species were planted in Sun Gro MetroMix® 306 planting mixture, which typically has a pH of 6.0 to 6.8 and an organic matter content of about 30 percent, in plastic pots with a surface area of 103.2 square centimeters (cm^2). When required to ensure good germination and healthy plants, a fungicide treatment and/or other chemical or physical treatment was applied. The plants were grown for 7-36 days (d) in a greenhouse with an approximate 14-hour (h) photoperiod which was maintained at about 18° C. during the day and 17° C. during the night. Nutrients and water were added on a regular basis and supplemental lighting was provided with overhead metal halide 1000-Watt lamps as necessary. The plants were employed for testing when they reached the second or third true leaf stage.
# (§4) Weighed amounts of esters (methyl) or salts (TEA [triethylammonium], K [potassium]) of 4-amino-3-chloro-6-(4-chloro-2-fluoro-3-methoxyphenyl)pyridine-2-carboxylic acid (Compound 1) were dissolved in a volume of 97:3 volume/volume (v/v) acetone/dimethylsulfoxide (DMSO) to obtain stock solutions. […] The concentrated stock solutions were diluted with an aqueous mixture of 1.5% v/v of Agri-dex crop oil concentrate to provide the appropriate application rates. Compound requirements are based upon a 12 mL application volume at a rate of 187 liters per hectare (L/ha). Stocks solutions of the safeners were prepared following the same procedure. Spray solutions of the safeners and experimental compound mixtures were prepared by adding the stock solutions to the appropriate amount of dilution solution to form a 12 mL spray solution with active ingredients in two-way combinations. Formulated compounds were applied to the plant material with an overhead Mandel track sprayer equipped with 8002E nozzles calibrated to deliver 187 L/ha over an application area of 0.503 square meters (m^2) at a spray height of 18 inches (43 centimeters (cm)) above average plant canopy. Control plants were sprayed in the same manner with the solvent blank.
# (§5) The treated plants and control plants were placed in a greenhouse as described above and watered by sub-irrigation to prevent wash-off of the test compounds. After 20-22 d, the condition of the test plants as compared with that of the control plants was determined visually and scored on a scale of 0 to 100 percent where 0 corresponds to no injury and 100 corresponds to complete kill.
# (§6) Colby's equation was used to determine the herbicidal effects expected from the mixtures (Colby, S. R. Calculation of the synergistic and antagonistic response of herbicide combinations. Weeds 1967, 15, 20-22.).
# (§7) The following equation was used to calculate the expected activity of mixtures containing two active ingredients, A and B: Expected=A+B−(A×B/100)
# (§8) A=observed efficacy of active ingredient A at the same concentration as used in the mixture.
# (§9) B=observed efficacy of active ingredient B at the same concentration as used in the mixture.
# [5] = test system: durum wheat (Triticum durum L; TRZDU); assay: Postemergence herbicidal safening, greenhouse, visual injury: durum wheat; format: in vivo
# Experimental: as §2, §3, §4, §5, §6, §7, §8, §9
# [6] = test system: wild buckwheat (Polygonum convolvulus L; POLCO); assay: Postemergence herbicidal activity, greenhouse, visual injury: wild buckwheat; format: in vivo
# Outline: as §1
# [7] = test system: barley (Hordeum vulgare L; HORVS); assay: Postemergence herbicidal safening, greenhouse, visual injury: barley; format: in vivo; parameters: key to HORVS Ob (Observed values): % visual injury: 0 = no injury, 100 = complete kill
# Outline: as §1
# [8] = test system: cleavers (Galium aparine L; GALAP); assay: Postemergence herbicidal activity, greenhouse, visual injury: cleavers; format: in vivo; parameters: key: visual injury, 0–100%: 0 = no injury, 100 = complete kill
# Outline: as §1
# [9] = test system: wheat (Triticum aestivum L; TRZAS); assay: Postemergence herbicidal safening, greenhouse, visual injury: wheat; format: in vivo
# Outline: as §1
# [10] = test system: scented mayweed (Matricaria chamomila L; MATCH); assay: Postemergence herbicidal activity, greenhouse, visual injury: scented mayweed; format: in vivo; parameters: key: % visual injury: 0 = no injury, 100 = complete kill
# Experimental: as §2, §3, §4, §5, §6, §7, §8, §9
# [11] = test system: kochia (Kochia scoparia L; KCHSC); assay: Postemergence herbicidal activity, greenhouse, visual injury: kochia; format: in vivo; parameters: key: % visual injury: 0 = no injury, 100 = complete kill
# Experimental: as §2, §3, §4, §5, §6, §7, §8, §9
# barley (HORVW) = assay: Postemergence herbicidal safening, greenhouse, visual injury: barley (HORVW)
# [12] = test system: chickweed (Stellaria media L; STEME); assay: Postemergence herbicidal activity, greenhouse, visual injury: chickweed; format: in vivo; parameters: key: visual injury, 0–100%: 0 = no injury, 100 = complete kill
# Outline: as §1
# [13] = test system: corn poppy (Papaver rhoeas L; PAPRH); assay: Postemergence herbicidal activity, greenhouse, visual injury: corn poppy; format: in vivo
# Outline: as §1
# [14] = test system: wild pansy (Viola tricolor L; VIOTR); assay: Postemergence herbicidal activity, greenhouse, visual injury: wild pansy; format: in vivo; parameters: key: visual injury, 0–100%: 0 = no injury, 100 = complete kill
# Outline: as §1
smiles,measurement,setting,value
"C=CCN(CC=C)C(=O)C(Cl)Cl [Dichlormid, N,N-diallyl-2,2-dichloroacetamide, reference compound]",SASKR Ob,[1]; applied alone at 17.5 g/ha,0%
same,SASKR Ob,[1]; applied alone at 35 g/ha,0%
same,SASKR Ob,[1]; applied alone at 70 g/ha,0%
same,SASKR Ob,[1]; applied alone at 140 g/ha,0%
same,VERPE Ob,[2]; applied alone at 17.5 g/ha,0%
same,VERPE Ob,[2]; applied alone at 35 g/ha,0%
same,VERPE Ob,[2]; applied alone at 70 g/ha,0%
same,VERPE Ob,[2]; applied alone at 140 g/ha,0%
same,LAMPU Ob,[3]; applied alone at 17.5 g/ha,0%
same,LAMPU Ob,[3]; applied alone at 35 g/ha,0%
same,LAMPU Ob,[3]; applied alone at 70 g/ha,0%
same,LAMPU Ob,[3]; applied alone at 140 g/ha,0%
same,LAMPU Ob (Observed values),[3]; safener 4.4 g/ha alone,0
same,LAMPU Ob (Observed values),[3]; safener 8.8 g/ha alone,0
same,LAMPU Ob (Observed values),[3]; safener 17.5 g/ha alone,0
same,LAMPU Ob (Observed values),[3]; safener 35 g/ha alone,0
same,TRZAW Ob (Observed values),[4]; safener 4.4 g/ha alone,0%
same,TRZAW Ob (Observed values),[4]; safener 8.8 g/ha alone,0%
same,TRZAW Ob (Observed values),[4]; safener 17.5 g/ha alone,0%
same,TRZAW Ob (Observed values),[4]; safener 35 g/ha alone,0%
same,TRZDU Ob (Observed values),[5]; safener 4.4 g/ha alone,0%
same,TRZDU Ob (Observed values),[5]; safener 8.8 g/ha alone,0%
same,TRZDU Ob (Observed values),[5]; safener 17.5 g/ha alone,0%
same,TRZDU Ob (Observed values),[5]; safener 35 g/ha alone,0%
same,POLCO Ob,[6]; applied alone at 17.5 g/ha,0%
same,POLCO Ob,[6]; applied alone at 35 g/ha,0%
same,POLCO Ob,[6]; applied alone at 70 g/ha,0%
same,POLCO Ob,[6]; applied alone at 140 g/ha,0%
same,HORVS Ob,[7]; applied alone at 17.5 g/ha,0%
same,HORVS Ob,[7]; applied alone at 35 g/ha,0%
same,HORVS Ob,[7]; applied alone at 70 g/ha,0%
same,HORVS Ob,[7]; applied alone at 140 g/ha,0%
same,HORVS Ob (Observed values),[7]; safener 4.4 g/ha alone,0
same,HORVS Ob (Observed values),[7]; safener 8.8 g/ha alone,0
same,HORVS Ob (Observed values),[7]; safener 17.5 g/ha alone,0
same,HORVS Ob (Observed values),[7]; safener 35 g/ha alone,0
same,GALAP Ob,[8]; applied alone at 17.5 g/ha,0%
same,GALAP Ob,[8]; applied alone at 35 g/ha,0%
same,GALAP Ob,[8]; applied alone at 70 g/ha,0%
same,GALAP Ob,[8]; applied alone at 140 g/ha,0%
same,TRZAS Ob,[9]; applied alone at 17.5 g/ha,0%
same,TRZAS Ob,[9]; applied alone at 35 g/ha,0%
same,TRZAS Ob,[9]; applied alone at 70 g/ha,0%
same,TRZAS Ob,[9]; applied alone at 140 g/ha,0%
same,MATCH Ob,[10]; applied alone at 17.5 g/ha,0%
same,MATCH Ob,[10]; applied alone at 35 g/ha,0%
same,MATCH Ob,[10]; applied alone at 70 g/ha,0%
same,MATCH Ob,[10]; applied alone at 140 g/ha,0%
same,KCHSC Ob,[11]; applied alone at 17.5 g/ha,0%
same,KCHSC Ob,[11]; applied alone at 35 g/ha,0%
same,KCHSC Ob,[11]; applied alone at 70 g/ha,0%
same,KCHSC Ob,[11]; applied alone at 140 g/ha,0%
same,HORVW Ob (Observed values),barley (HORVW); safener 4.4 g/ha alone,0%
same,HORVW Ob (Observed values),barley (HORVW); safener 8.8 g/ha alone,0%
same,HORVW Ob (Observed values),barley (HORVW); safener 17.5 g/ha alone,0%
same,HORVW Ob (Observed values),barley (HORVW); safener 35 g/ha alone,0%
same,STEME Ob,[12]; applied alone at 17.5 g/ha,0%
same,STEME Ob,[12]; applied alone at 35 g/ha,0%
same,STEME Ob,[12]; applied alone at 70 g/ha,0%
same,STEME Ob,[12]; applied alone at 140 g/ha,0%
same,PAPRH Ob,[13]; applied alone at 17.5 g/ha,0%
same,PAPRH Ob,[13]; applied alone at 35 g/ha,0%
same,PAPRH Ob,[13]; applied alone at 70 g/ha,0%
same,PAPRH Ob,[13]; applied alone at 140 g/ha,0%
same,PAPRH Ob (Observed values),[13]; safener 4.4 g/ha alone,0
same,PAPRH Ob (Observed values),[13]; safener 8.8 g/ha alone,0
same,PAPRH Ob (Observed values),[13]; safener 17.5 g/ha alone,0
same,PAPRH Ob (Observed values),[13]; safener 35 g/ha alone,0
same,VIOTR Ob,[14]; applied alone at 17.5 g/ha,0%
same,VIOTR Ob,[14]; applied alone at 35 g/ha,0%
same,VIOTR Ob,[14]; applied alone at 70 g/ha,0%
same,VIOTR Ob,[14]; applied alone at 140 g/ha,0%
